Laboratory results published in patent publication US4400517A, “Phosphoric esters derived from 1,2,4-triazole having an insecticidal, nematocidal and acaricidal action, and their preparation” (priority 1976, dated 1983).
Where two headings read alike, the source gives them in different places.

Experiments:
Blatta orientalis = experiment: Biological activity on Blatta orientalis (Ortoptera); assay type: in vivo; settings: for % ge of activity, Blatta o.: Table 4, 2880 min
Protocol: (10) Biological activity on Blatta orientalis (Ortoptera)
The bottom and walls of glass crystallizers were treated uniformly with an acetonic solution of the products under examination (see Tables 4 and 5). After evaporation of the solvent, into each crystallizer were introduced ten 80-100 days old neanides. The crystallizers were then closed with a metal net cover. After 24 hours from the start of the treatment, the insects were transferred to similar untreated crystallizers, and there were appropriately nourished in conventional manner.
The percentage of mortality (untreated insects=0) was determined after 48 hours from the start of the treatment.

Spodoptera littoralis = experiment: Biological activity on Spodoptera littoralis (Lepidoptera); assay type: in vivo; settings: for mortality at 0.01 %: 48 h, 0,1%o
Protocol: (7) Biological activity on Spodoptera littoralis (Lepidoptera)
Cut tobacco leaves were sprinkled with an aqueous dispersion of the products under examination (see Tables 4 and 5).
After drying, the leaves were infested with 5-day old larvae.
The percentage of mortality of the larvae was determined after 48 hours from treatment (untreated leaves, mortality=0).

Hilemyia brassicae = experiment: Biological activity on Hilemyia brassicae (Diptera); assay type: in vivo; settings: Table 4
Protocol: (9) Biological activity on Hilemyia brassicae (Diptera)
Samples of soil were treated by uniform mixing with an aqueous dispersion of the products under examination (see Tables 4 and 5). The soil was then divided into two pots and in each of these 4 small radish plants were transplanted. The plants were subsequently infected by putting to the soil 50 Diptera eggs in the middle of the surface of the pots.
The results were recorded 10 days after treatment by extracting the plants from the soil and by counting the number of larvae present on the roots and on the surrounding soil.
The insecticidal activity was expressed as percentage of reduction of the infestation in comparison with the witness plants (plants transplanted into untreated soil, activity=0).

Pieris brassicae = experiment: Biological activity on Pieris brassicae (Lepidoptera); assay type: in vivo; settings: 48 h, Table 5, read-out: Activity (mortality class), Pieris B.; for mortality at 0.001 %: 0.01%o
Protocol: (2) Biological activity on Pieris brassicae (Lepidotera)
Cut-off cauliflower leaves were sprinkled with an aqueous dispersion of the products under examination (see TABLE 5).
After drying, the leaves were infested with 5-day old larvae. The percentage of mortality of the larvae (untreated leaves=0) was determined after 48 hours from treatment.

Culex pipiens = experiment: Biological activity on Culex pipiens larvae (Diptera); assay type: in vivo; settings: for mortality at 0.2 ppm: 24 h, 0,2 ppm
Protocol: (4) Biological activity on Culex pipiens (Diptera)
Into glasses containing an aqueous dispersion of the products under examination (see Tables 4 and 5) there were introduced mosquito larvae of third and fourth age.
The mortality percentage of the larvae (glasses containing pure water=0) was determined after 24 hours from treatment.

Tetranychus urticae = experiment: Biological activity on adults of Tetranychus urticae (Acari); assay type: in vivo; settings: for mortality at 0.0005 %: 24 h, 0,005%o
Protocol: (5) Biological activity on adults of Tetranychus urticae (Acari)
Discs of bean leaves were infested with adult acari and then sprinkled with an aqueous dispersion of the products under examination (see Tables 4 and 5).
The mortality percentage was determined after 24 hours from treatment (untreated leaf discs, mortality=0).

Meloidogyne icognita = experiment: Biological activity on Meloidogyne icognita (Nematoda); assay type: in vivo; settings: 20 ppm; Table 4
Protocol: (8) Biological activity on Meloidogyne icognita (Nematoda)
A 1:1 mixture of field soil and sand, infested with newborne larvae and eggs of Nematoda, were treated, by uniform admixing, with an aqueous dispersion of the products under examination (see Tables 4 and 5). The soil was then distributed into plastic pots, and after 5 days in each pot there were planted 5 small tomato plants about 20 cm high.
The results were recorded 21 days after the transplanting.
The nematocidal activity was expressed as the percentage reduction of infestation with respect to the witness (small plants transplanted into a non-treated soil, activity=0).

[1] = test system: Leptinotarsa decemlineata; experiment: Biological activity on Leptinotarsa decemlineata (Coleoptera); assay type: in vivo; settings: for mortality at 0.01 %: 48 h, 0,1%o
Protocol: (3) Biological activity on Leptinotarsa decemlineata (Coleoptera)
Small potato plants grown in pots were infested with 4-day old larvae, and were then sprinkled with an aqueous dispersion of the products under examination (see Tables 4 and 5).
The mortality percentage (untreated small plants=0) was determined after 48 hours from treatment.

Locusta M. = experiment: Activity on Locusta M.; settings: in vivo
warm-blooded animals = experiment: Toxicity toward warm-blooded animals / mammals; assay type: in vivo
[2] = test system: orthoptera, lepidoptera, coleoptera, diptera, nematoda and acari; experiment: Comparison of the insecticidal, acaricidal and nematocidal activities; assay type: in vivo; settings: M 8174 vs M 8172 (Table 4); Tables 4 and 5
Source text: Of this material (M 8172) we have estimated the effects on various arthropods at decreasing doses, together with effects shown by a representative compound of the class described by us in this invention (M 8174).

[3] = Toxicity on albino rats by oral administration; settings: rat, in vivo
[4] = Blatta orientalis, 48 h, 0,01 g/m^2, Table 5, read-out: Activity (mortality class), Blatta O.
[5] = Table 4, read-out: % ge of activity, Spodoptera l.
[6] = 48 h, 0,05%o, Table 4, read-out: % ge of activity, Spodoptera l.
[7] = 24 h, 0,02 ppm, Table 4, read-out: % ge of activity, Culex p.
[8] = Table 4, read-out: % ge of activity, Culex p.
[9] = 24 h, 0,01%o, Table 4, read-out: % ge of activity, Tetranycus u. (ad.)
[10] = Table 4, read-out: % ge of activity, Tetranycus u. (ad.)
[11] = Table 4, read-out: % ge of activity, Leptinotarsa d.
[12] = 48 h, 0,05%o, Table 4, read-out: % ge of activity, Leptinotarsa d.

Row | SMILES | % ge of activity, Blatta o. (Blatta orientalis; 0,01 g/m^2) [%] | % ge of activity, Blatta o. (Blatta orientalis; 0,1 g/m^2) [%] | mortality at 0.01 g/m2 (Blatta orientalis; [4]) [%] | mortality at 0.01 % (Spodoptera littoralis; [5]) [%] | mortality at 0.005 % (Spodoptera littoralis; [6]) [%] | % ge of activity, Hylemyia b. (Hilemyia brassicae; 2 ppm) [%] | % ge of activity, Hylemyia b. (Hilemyia brassicae; 10 ppm) [%] | mortality at 0.001 % (Pieris brassicae) [%] | mortality at 0.02 ppm (Culex pipiens; [7]) [%] | mortality at 0.2 ppm (Culex pipiens; [8]) [%] | mortality at 0.001 % (Tetranychus urticae; [9]) [%] | mortality at 0.0005 % (Tetranychus urticae; [10]) [%] | % ge of activity, Meloidogyne i. (Meloidogyne icognita) [%] | mortality at 0.01 % [1, 11] [%] | mortality at 0.005 % [1, 12] [%] | also measured
1 | CCOP(=S)(OCC)Oc1nc(-c2ccccc2)nn1C [M 8172, 0,0-diethyl-0-[1-methyl-3-phenyl-1,2,4-triazolyl(5)]-thiophosphate, reference compound] | 20 | 100 | 10 to 69 | 100 | 15 | 48 | 98 | 0 to 9 | 0 | 100 | 96 | 76 | 40 | 92 | 10 | mortality at 0.005 % (Spodoptera littoralis; 48 h, read-out: Activity (mortality class), Spodoptera L.): 10 to 69%; mortality at 0.02 ppm (Culex pipiens; 24 h, read-out: Activity (mortality class), Culex P. (larvae)): 0 to 9%; mortality at 0.001 % (Tetranychus urticae; 24 h, read-out: Activity (mortality class), Tetranychus U. (adults)): 70 to 99%; mortality at 0.005 % ([1]; 48 h, read-out: Activity (mortality class), Leptinotarsa D.): 10 to 69%; Activity (mortality class), Locusta M. (Locusta M.): + (70-99% of mort.); toxicity in words (warm-blooded animals): low toxicity towards mammals
2 | CCOP(=S)(OCC)Oc1nc(C=C(Cl)Cl)nn1C [M 8174] | 100 | 100 | 100 | 100 | 90 | 100 | 100 | 100 | 100 | 100 | 100 | 100 | 100 | 100 | 100 | mortality at 1 g/m2 (Blatta orientalis; Blatta orientalis, 48 h, 1 g/m^2, Table 5, read-out: Activity (mortality class), Blatta O.): 100%; mortality at 0.005 % (Spodoptera littoralis; 48 h, 0.05%o, Table 5, read-out: Activity (mortality class), Spodoptera L.): 100%; mortality at 0.1 % (Spodoptera littoralis; 48 h, 1%o, Table 5, read-out: Activity (mortality class), Spodoptera L.): 100%; mortality at 0.1 % (Pieris brassicae; 1%o): 100%; activity in words [2]: significantly better activity; mortality at 0.02 ppm (Culex pipiens; 24 h, 0.02 ppm, Table 5, read-out: Activity (mortality class), Culex P. (larvae)): 100%; mortality at 2 ppm (Culex pipiens; 24 h, 2 ppm, Table 5, read-out: Activity (mortality class), Culex P. (larvae)): 100%; mortality at 0.001 % (Tetranychus urticae; 24 h, 0.01%o, Table 5, read-out: Activity (mortality class), Tetranychus U. (adults)): 100%; mortality at 0.1 % (Tetranychus urticae; 24 h, 1%o, Table 5, read-out: Activity (mortality class), Tetranychus U. (adults)): 100%; mortality at 0.005 % ([1]; 48 h, 0.05%o, Table 5, read-out: Activity (mortality class), Leptinotarsa D.): 100%; mortality at 0.1 % ([1]; 48 h, 1%o, Table 5, read-out: Activity (mortality class), Leptinotarsa D.): 100%; LD50 [3]: 1600 mg/kg
